Experimental data as given in the CheMixHub viscosity set.

Experiment: xn = mol fraction of the nth substance listed

CCC(O)CO (stereo unspecified) + CC(C)CO
viscosity [mPa·s], 100 kPa
Details | x2 = 0.1 | x2 = 0.201 | x2 = 0.3 | x2 = 0.4 | x2 = 0.5 | x2 = 0.6 | x2 = 0.698 | x2 = 0.8 | x2 = 0.899
298.15 K | 37.85 | 28.47 | 21.1 | 15.45 | 10.88 | 7.762 | 6.307 | 5.182 | 3.998
303.15 K | 28.29 | 21.56 | 16.11 | 12.08 | 8.609 | 6.351 | 5.187 | 4.312 | 3.375
308.15 K | 21.44 | 16.65 | 12.67 | 9.596 | 7.019 | 5.289 | 4.334 | 3.62 | 2.873
313.15 K | 16.62 | 13.03 | 10.31 | 7.809 | 5.758 | 4.449 | 3.635 | 3.062 | 2.473
318.15 K | 13.08 | 10.42 | 8.093 | 6.339 | 4.851 | 3.692 | 3.08 | 2.621 | 2.141
323.15 K | 10.47 | 8.442 | 6.689 | 5.231 | 3.969 | 3.154 | 2.639 | 2.253 | 1.855

Nc1ccccc1 + CC(C)CO
303 K, 101.33 kPa
Details | viscosity [mPa·s]
x1 = 0.1 | 2.305
x1 = 0.2 | 2.138
x1 = 0.3 | 2.096
x1 = 0.4 | 2.047
x1 = 0.5 | 2.073
x1 = 0.6 | 2.172
x1 = 0.7 | 2.284
x1 = 0.8 | 2.366
x1 = 0.9 | 2.715

CC(C)(C)O + CC(C)O
303.2 K, 101.33 kPa
Details | viscosity [mPa·s]
x2 = 0.05 | 3.297
x2 = 0.1 | 3.237
x2 = 0.15 | 3.172
x2 = 0.2 | 3.101
x2 = 0.3 | 2.931
x2 = 0.4 | 2.75
x2 = 0.5 | 2.572
x2 = 0.6 | 2.396
x2 = 0.7 | 2.224
x2 = 0.8 | 2.059
x2 = 0.85 | 1.979
x2 = 0.9 | 1.9
x2 = 0.95 | 1.831

CCNCC + CC(C)O
viscosity [mPa·s], 100 kPa
Details | 293.15 K | 298.15 K | 303.15 K | 308.15 K | 313.15 K | 318.15 K | 323.15 K
x1 = 0.0215 | 2.3 | 1.99 | 1.72 | 1.49 | 1.31 | 1.15 | 1.01
x1 = 0.0807 | 1.99 | 1.74 | 1.51 | 1.31 | 1.152 | 1.02 | 0.9
x1 = 0.1595 | 1.63 | 1.44 | 1.256 | 1.09 | 0.97 | 0.86 | 0.78
x1 = 0.2401 | 1.33 | 1.187 | 1.05 | 0.924 | 0.82 | 0.732 | 0.67
x1 = 0.3491 | 1.02 | 0.91 | 0.806 | 0.72 | 0.64 | 0.58 | 0.54
x1 = 0.4399 | 0.84 | 0.75 | 0.671 | 0.598 | 0.54 | 0.491 | 0.46
x1 = 0.5598 | 0.65 | 0.58 | 0.527 | 0.48 | 0.435 | 0.396 | 0.37
x1 = 0.6501 | 0.551 | 0.5 | 0.455 | 0.416 | 0.376 | 0.345 | 0.32
x1 = 0.7395 | 0.48 | 0.43 | 0.39 | 0.36 | 0.33 | 0.304 | 0.283
x1 = 0.8496 | 0.41 | 0.376 | 0.343 | 0.319 | 0.296 | 0.271 | 0.251
x1 = 0.94 | 0.36 | 0.336 | 0.315 | 0.293 | 0.274 | 0.257 | 0.243
x2 = 0.0137 | 0.33 | 0.314 | 0.298 | 0.282 | 0.267 | 0.251 | 0.238

COCCOCCOCCO + CC(C)O
viscosity [mPa·s], 101 kPa
Details | x1 = 0.0079 | x1 = 0.0146 | x1 = 0.0314 | x1 = 0.0413 | x1 = 0.0581 | x1 = 0.0775 | x1 = 0.1025
298.15 K | 2.089 | 2.09 | 2.099 | 2.116 | 2.128 | 2.159 | 2.207
308.15 K | 1.568 | 1.574 | 1.594 | 1.608 | 1.628 | 1.683 | 1.706
318.15 K | 1.202 | 1.21 | 1.235 | 1.252 | 1.266 | 1.3 | 1.343

CC(C)(C)O + CCC(C)=O
viscosity [mPa·s]
Details | 298.15 K | 303.15 K | 308.15 K | 313.15 K | 318.15 K
101 kPa, x1 = 0.0925 | 0.3917 | 0.3748 | 0.3599 | – | –
101 kPa, x1 = 0.1893 | 0.4117 | 0.3946 | 0.3737 | – | –
101 kPa, x1 = 0.2885 | 0.4407 | 0.4203 | 0.3964 | – | –
101 kPa, x1 = 0.3835 | 0.4875 | 0.452 | 0.422 | – | –
101 kPa, x1 = 0.4877 | 0.5818 | 0.5397 | 0.4915 | – | –
101 kPa, x1 = 0.5862 | 0.7295 | 0.6627 | 0.602 | – | –
101 kPa, x1 = 0.6907 | 0.9865 | 0.8797 | 0.7882 | – | –
101 kPa, x1 = 0.7895 | 1.424 | 1.237 | 1.085 | – | –
101 kPa, x1 = 0.8935 | 2.253 | 1.879 | 1.588 | – | –
101.3 kPa, x1 = 0.0985 | 0.423 | 0.401 | 0.38 | 0.361 | 0.343
101.3 kPa, x1 = 0.1968 | 0.464 | 0.438 | 0.413 | 0.391 | 0.37
101.3 kPa, x1 = 0.2962 | 0.52 | 0.487 | 0.457 | 0.429 | 0.405
101.3 kPa, x1 = 0.3941 | 0.595 | 0.553 | 0.514 | 0.48 | 0.449
101.3 kPa, x1 = 0.4949 | 0.705 | 0.647 | 0.596 | 0.551 | 0.511
101.3 kPa, x1 = 0.5928 | 0.859 | 0.779 | 0.708 | 0.647 | 0.593
101.3 kPa, x1 = 0.695 | 1.116 | 0.99 | 0.884 | 0.793 | 0.716
101.3 kPa, x1 = 0.8003 | 1.577 | 1.357 | 1.178 | 1.031 | 0.909
101.3 kPa, x1 = 0.9037 | 2.474 | 2.029 | 1.687 | 1.421 | 1.212

CCNCC + CCC(C)=O
298.15 K, 101 kPa
Details | viscosity [mPa·s]
x2 = 0.1013 | 0.273
x2 = 0.2023 | 0.279
x2 = 0.303 | 0.283
x2 = 0.4034 | 0.287
x2 = 0.5035 | 0.293
x2 = 0.6034 | 0.3
x2 = 0.703 | 0.313
x2 = 0.8023 | 0.331
x2 = 0.9013 | 0.353

CCNCC + CCC(C)O
viscosity [mPa·s], 100 kPa
Details | 293.15 K | 298.15 K | 303.15 K | 308.15 K | 313.15 K | 318.15 K | 323.15 K
x1 = 0.0221 | 3.49 | 2.91 | 2.42 | 2.04 | 1.73 | 1.49 | 1.28
x1 = 0.081 | 3.02 | 2.54 | 2.12 | 1.82 | 1.55 | 1.34 | 1.18
x1 = 0.1601 | 2.49 | 2.11 | 1.8 | 1.56 | 1.33 | 1.16 | 1.049
x1 = 0.24 | 2.04 | 1.75 | 1.51 | 1.31 | 1.15 | 1.01 | 0.93
x1 = 0.3494 | 1.602 | 1.37 | 1.17 | 1.033 | 0.92 | 0.83 | 0.771
x1 = 0.4395 | 1.32 | 1.13 | 0.98 | 0.867 | 0.78 | 0.71 | 0.66
x1 = 0.5602 | 1.032 | 0.868 | 0.754 | 0.68 | 0.62 | 0.574 | 0.533
x1 = 0.65 | 0.827 | 0.712 | 0.628 | 0.57 | 0.528 | 0.489 | 0.459
x1 = 0.74 | 0.662 | 0.58 | 0.515 | 0.48 | 0.443 | 0.416 | 0.389
x1 = 0.8503 | 0.496 | 0.447 | 0.41 | 0.38 | 0.359 | 0.337 | 0.318
x1 = 0.94 | 0.384 | 0.356 | 0.335 | 0.309 | 0.298 | 0.284 | 0.268
x2 = 0.0129 | 0.336 | 0.317 | 0.3 | 0.284 | 0.27 | 0.257 | 0.244
